Laboratory results taken from ChEMBL document CHEMBL1649276, “Phenylbutyrate induces antimicrobial peptide expression” (2009).
The source made the active and inactive calls. No cut-off for these calls is given here.

What was measured:
[1] = test system: VA10; test: Induction of CAMP mRNA expression in human VA10 cells at 4 mM after 24 hrs by RT-PCR analysis; type: functional, cell-based
[2] = test system: U-937; test: Induction of CAMP mRNA expression in human U937 cells at 4 mM after 8 to 48 hrs by RT-PCR analysis; type: functional, cell-based
[3] = test system: VA10; test: Induction of CAMP mRNA expression in human VA10 cells after 48 hrs by RT-PCR analysis; type: functional, cell-based
[4] = test system: VA10; test: Induction of CAMP mRNA expression in human VA10 cells at 4 mM by RT-PCR analysis; type: functional, cell-based; settings: TDE = time-dependent effect
[5] = test system: HT-29; test: Induction of CAMP mRNA expression in human HT-29 cells at 4 mM after 8 to 48 hrs by RT-PCR analysis; type: functional, cell-based
[6] = test system: A498; test: Induction of CAMP mRNA expression in human A498 cells at 4 mM after 8 to 48 hrs by RT-PCR analysis; type: functional, cell-based
[7] = test system: VA10; test: Induction of DEFB1 mRNA expression in human VA10 cells at 4 mM after 24 hrs by RT-PCR analysis; type: functional, cell-based
[8] = test system: VA10; test: Induction of DEFB2 mRNA expression in human VA10 cells at 4 mM after 24 hrs by RT-PCR analysis; type: functional, cell-based
[9] = test system: VA10; test: Induction of DEFB3 mRNA expression in human VA10 cells at 4 mM after 24 hrs by RT-PCR analysis; type: functional, cell-based
[10] = test system: VA10; test: Induction of DEFB4 mRNA expression in human VA10 cells at 4 mM after 24 hrs by RT-PCR analysis; type: functional, cell-based
[11] = test system: U-937; test: Induction of DEFB1 mRNA expression in human U937 cells at 4 mM after 24 to 48 hrs by RT-PCR analysis; type: functional, cell-based
[12] = Induction of CAMP mRNA expression in human VA10 cells at 4 mM after 24 hrs by RT-PCR analysis in presence of 1,25(OH)2D3 relative to control; type: functional
[13] = test system: VA10; test: Induction of LL-37 protein expression in human VA10 cells at 4 mM after 24 hrs by Western blotting; type: functional, cell-based
[14] = test system: VA10; test: Induction of LL-37 protein expression in human VA10 cells at 20 nM after 24 hrs by Western blotting; type: functional, cell-based
[15] = test system: VA10; test: Induction of CAMP mRNA expression in human VA10 cells at 4 mM after 24 hrs by RT-PCR analysis in presence of protein synthesis inhibitor CHX treated 1 hr before compound challenge; type: functional, cell-based
[16] = test system: VA10; test: Induction of CAMP mRNA expression in human VA10 cells at 4 mM after 24 hrs by RT-PCR analysis in presence of JNK inhibitor SP600125 treated 1 hr before compound challenge; type: functional, cell-based
[17] = test system: VA10; test: Induction of CAMP mRNA expression in human VA10 cells at 4 mM after 24 hrs by RT-PCR analysis in presence of p38 kinase inhibitor SB203580 treated 1 hr before compound challenge; type: functional, cell-based
[18] = test system: VA10; test: Induction of CAMP mRNA expression in human VA10 cells at 4 mM after 24 hrs by RT-PCR analysis in presence of ERK1/2 inhibitor U0126 treated 1 hr before compound challenge; type: functional, cell-based

| Compound | Activity [1] | Activity [2] | Activity [3] | Activity [4] | Activity [5] | Activity [6] | Activity [7] | Activity [8] | Activity [9] | Activity [10] | Activity [11] | fold change (FC) [12] | Activity [13] | Activity [14] | Activity [15] | Activity [16] | Activity [17] | Activity [18] |
| --- | --- | --- | --- | --- | --- | --- | --- | --- | --- | --- | --- | --- | --- | --- | --- | --- | --- | --- |
| CC(Cc1ccccc1)C(=O)O (stereo not given) | Active |  |  |  |  |  |  |  |  |  |  |  |  |  |  |  |  |  |
| CCC(C)(C)C(=O)O | inactive |  |  |  |  |  |  |  |  |  |  |  |  |  |  |  |  |  |
| O=C([O-])CCCc1ccccc1.[Na+] [SODIUM PHENYLBUTYRATE] | Active | Active | Dose-dependent effect | tde | Active | Active | Active | inactive | inactive | inactive | inactive | 100 | Active | Active | inactive | inactive | inactive | inactive |
